Reference: a melting point compilation (Tetko et al.; mined from patent text by program, amines drawn as free bases though some values may be those of a salt)

SMILES	melting point
COc1cc(C(=O)N2Cc3ccc(C(=O)NCc4ccc(OC(F)(F)F)cc4)n3Cc3ccccc32)ccc1-c1ccccc1C	145 to 149 °C
CC(C)C1=CC(=O)C2=C(CCC3C(C)(C(=O)O)CCCC23C)C1=O (stereo unspecified)	207 to 209 °C
O=C(Nc1cn(C2CCCCO2)nc1C(=O)NCCO)c1ccccn1 (stereo unspecified)	214 to 215 °C
COc1cc(OC)cc(C(=O)NC(NC(=NC#N)Nc2ccc(Cl)nc2)C(C)(Cl)Cl)c1 (stereo unspecified)	193 to 195 °C
CSc1ccc(C(=O)c2c(C)sc3c2CCC3C(=O)O)cc1 (stereo unspecified)	131 to 133 °C
CCCC(=O)NCCC1CCc2cc(OC)ccc21 (single isomer, unassigned; (-))	79 to 80 °C
CC(C)c1ccc(S(=O)(=O)Nc2ccccc2C(=O)NCCc2ncc[nH]2)cc1	210 to 218 °C
CC(=O)N(C(C)=O)c1nc2n(n1)CCc1ccccc1-2	139 to 140 °C
O=C(Cn1cccc(NC(=O)OCc2ccccc2)c1=O)NC(Cc1ccccc1)C(=O)C(F)(F)F (stereo unspecified)	113 to 117 °C
COc1cc(C)c(C(=O)c2c(OC)cnc(Br)c2Cl)c(OC)c1OC	97 to 99 °C
Cc1c(Cc2cccc(C(F)(F)F)c2)sc2c(-c3cccc(C(=O)NCCOC(C)C)c3)cccc12	121 to 122 °C
CC(=O)Nc1cccc(C#Cc2ccc([C@@H]3CC[C@@H]4CCCCN43)cc2)c1 (relative stereo)	161 to 163 °C
CN1CC(c2ccc(S(C)(=O)=O)cc2)=C(c2ccc(Br)cc2)C1=O	161 to 163 °C
CCCCOc1csc(C)c1C(=O)O	66 to 68 °C
Cc1cccc(C(=O)Nc2nc(-c3ccccc3)c(-c3ccc(=O)n(C(C)C)n3)s2)c1	198 to 199 °C
CCCCc1c(/C=C/C(=O)OC)ccc2cc(OC)ccc12	71 to 72 °C
O=C(c1cc(-c2ccc(Cl)cc2)c(N2CCOCC2)s1)c1cc(-c2ccc(Cl)cc2)c(N2CCOCC2)s1	135 to 136 °C
CCCCCc1c(C(C)C)nc(C(C)C)c(CO)c1-c1cccc(O)c1	121 to 122 °C
O=[N+]([O-])C1=C2N(Cc3ccc(Cl)nc3)CCCN2C2CCC1O2 (stereo unspecified)	143 to 145 °C
CC(C)(C)c1ccc(C2C=C(c3ccc(C#C[Si](C)(C)C)cc3)NN2c2ccccc2)cc1 (stereo unspecified)	160 to 162 °C
COc1ccc2c3c(n(C)c2c1)SCCC3=O	204 to 206 °C
COc1ccc(NC(C)(C)C(=O)O)c([N+](=O)[O-])c1	119 to 121 °C
CCn1cc(-c2ccc([C@H](C)N3CC[C@](CC(C)(C)O)(c4ccccc4)OC3=O)cc2)ccc1=O	167 to 168 °C
CC1(C)COc2ccc(Cl)cc2C(O)(c2ccccn2)C1 (stereo unspecified)	118 °C

SMILES	melting point
COc1ccccc1CNc1cc(C(=O)Nc2ccccc2)ccc1OC	177 to 179 °C
Fc1ccc(-c2ncn(C3CCNCC3)c2-c2ccnc(Oc3ccccc3)n2)cc1	182 to 183 °C
Cc1ccc(C(=O)N2CCN(CC3(C)Cc4c(C)c(N)c(C)c(C)c4O3)CC2)cc1 (stereo unspecified)	131 to 133 °C
CC(C)OC(=O)C(C)Oc1ncn(-c2ccc(Cl)cc2Cl)n1 (stereo unspecified)	55 to 57 °C
COc1ccc(CSc2nnc(-c3ccnc(NC(=O)OC(C)(C)C)c3)o2)cc1F	244 to 245 °C
CC1CN(c2cc3c(c(N)c2F)c(=O)c(C(=O)O)cn3C2CC2)CCN1 (stereo unspecified)	181 to 183 °C
CC(C)(C)c1ccc2sc3cc(-c4nnn[nH]4)ccc3c(=O)c2c1	277 °C
CC(=O)Oc1ccc(-c2ccccc2)cc1C1(OC(C)=O)C(=O)c2ccccc2C1=O	196 to 198 °C
CC(=NOc1ccc(F)cc1)c1cc(Cl)ccc1NS(=O)(=O)C(F)(F)F	71 to 73 °C
CCOC(=O)CCc1c(-c2cc(Cl)ccc2OC)c2cc(C(F)(F)F)ccc2[nH]c1=O	193 to 195 °C
O=C(O)c1cc(NCc2ccccc2)ccc1O	174 °C
CC[Si](CC)(CC)c1ccccc1S(=O)(=O)NC(=O)Nc1nc(OC)cc(OC)n1	136 °C
CC(C)(C)OC(=O)N1CCN(c2cccc3cc[nH]c23)CC1	150 to 151 °C
CC(C)NC(=O)N1N=C(c2ccc(N)cc2)c2cc(Cl)ccc2CC1C (stereo unspecified)	100 to 102 °C
CC(=O)Nc1ccc2nc(-c3ccccc3)cc(OCC(=O)N3CCOCC3)c2c1	261 °C
N#Cc1c(N2CCN(C(=O)c3cccs3)CC2)c2cscc2n(Cc2ccc(F)cc2)c1=O	238 °C
O=C1OC2(CCc3ccccc32)c2ccccc21 (stereo unspecified)	138 to 139 °C
O=[N+]([O-])c1ccc(O)c(C(F)(F)F)c1	103 to 104 °C
CSc1ncc(C=O)c(NC2CC2)n1	69.5 to 70 °C
O=C(NNS(=O)(=O)c1c(Cl)cccc1Cl)c1ccc2oc3ccccc3c2c1	202 to 203 °C
CC(C)(CI)c1cc(Cl)nnc1Cl	104 to 106 °C
Fc1cccc(-c2cncnc2)c1	63 to 63.5 °C
CCOC(=O)CN1CCN(c2cc3c(cc2Cl)c(=O)c(C(=O)O)cn3CC)CC1	230 to 232 °C
Clc1c(CBr)ccc2cc(CBr)ccc12	127 to 129 °C

SMILES	melting point
CCc1nc2c(N)nc3ccccc3c2n1CCCS(=O)(=O)NC	225 to 228 °C
CC(C)C(=O)c1nccnc1SCc1ccco1	57 to 58 °C
CCOC(=O)c1cnc2ccc(C3CCCCCC3)cc2c1Cl	61 to 62 °C
O=C(O)Cc1ccc(NC(=O)C(COc2cccc(Cl)c2)NS(=O)(=O)c2ccc(I)cc2)cc1 (racemic)	225 to 226 °C
Cc1cccc2nc(C)n(-c3ccccc3)c12	107 to 109 °C
CCN1C(=O)[C@@H](NC(=O)OC(C)(C)C)COc2ccccc21	112 °C
CC(C)(C)Sc1c(CC(C)(C)C(=O)O)n(Cc2ccc(Cl)cc2)c2ccc(OCc3ccncc3)cc12	238 to 240 °C
C=CCN(CC=C)Cc1noc(-c2ncn3c2[C@@H]2CCCN2C(=O)c2c(Cl)cccc2-3)n1	175 to 177 °C
COc1ccc(Cl)cc1C(=O)NS(=O)(=O)c1ccc(C(=O)Cl)cc1	138 to 140 °C
O=c1cc(-c2nc3ccccc3[nH]2)oc2ccccc12	232 °C
CCc1ccc(-n2nc(Cl)cc2-c2ccc(S(C)(=O)=O)cc2)cc1N	158 to 160 °C
CCC(CC)(CCS(N)(=O)=O)COc1nn2ncnc2cc1C	148 to 149 °C
Cc1ccc(-c2csc(/C=C/C(=O)O)c2)cc1	206 to 207 °C
N=C(N)NOc1nccc2ccccc12	162 to 164 °C
CC(=O)N1N=C(c2ccc([N+](=O)[O-])c(C)c2)c2cc3c(cc2CC1(C)C#N)OCO3 (stereo unspecified)	253 to 255 °C
CN1CCN(c2ccc3c(c2)NC(=O)C(C)(c2ccc([N+](=O)[O-])cc2)C3=O)CC1 (stereo unspecified)	150 to 151 °C
CCOc1cc(N(CC)CC)ccc1C(=O)c1nc2ccccc2nc1C(=O)O	175 to 176 °C
Nc1ccc(N2C(=O)c3ccccc3C2=O)cc1S(F)(F)(F)(F)F	176 to 178 °C
O=C(Nc1ccccc1Cl)Nc1nc(=O)n(CC2CC2)cc1F	197 to 199 °C
COC(=O)c1ccccc1-c1cc(-c2ccc(C(F)(F)F)cc2)no1	90.5 to 92 °C
Nc1nonc1-c1nc2ccccc2n1CC(=NO)c1ccc(Br)cc1	198 to 201 °C
CC(=NNc1ccccc1)c1ccc(O)cc1O	159 °C
COC(=O)c1c(Cc2ccc(C(=O)CBr)cc2)c(=O)c2ccc(C)nc2n1-c1ccccc1	189 to 191 °C
Cc1c(NC(=O)CC(C)(C)C)cc2c(c1C)OC(C)(C)C2=O	175 to 176 °C

SMILES	melting point
C[C@H](O)C(=O)Nc1c(C(=O)c2ccccc2)[nH]c2cc(Cl)ccc12	185 to 190 °C
CC(=O)N1[C@@H](c2ccc(Cl)cc2)SC(C)(C)[C@@H]1C(=O)O	197 to 198 °C
O=C1NC(=O)N2c3ccccc3[C@H]3CCN4CCC[C@H]1[C@H]4[C@H]32 (racemic)	235 °C
CC(=O)OC1CSC(Oc2cncc(-c3ncccc3C)c2)C(OC(C)=O)C1OC(C)=O (stereo unspecified)	148 to 150 °C
CC#Cc1cn(C2OC(COC(C)=O)C(OC(C)=O)C2OC(C)=O)c(=O)[nH]c1=O (stereo unspecified)	150 to 157 °C
Cc1cc(-c2cc(C(=O)O)c(=O)n(Cc3ccccc3Cl)n2)ccc1F	185 to 186 °C
Cn1nc(-c2cccc(N3Cc4cc(C(C)(C)C)ccc4C3=O)c2CO)cc(Nc2ccn(C3CNC3)n2)c1=O	202 to 204 °C
Cc1cc(Nc2cc(Cl)nc(-c3ccccc3)n2)[nH]n1	235 to 236 °C
CCN(CC)C(=O)CCc1nc(-c2ccccc2)nc2ccc(OC)cc12	144 °C
CSC(=C[N+](=O)[O-])NCCCCc1c[nH]cn1	157 to 158 °C
O=C(O)c1cccc(-c2ccc(CNC(=O)c3cccnc3Oc3ccc(F)cc3)cc2)c1	184 to 186 °C
COC(=O)c1ccn(C)c1S(=O)(=O)NC(C)(C)C	105 to 108 °C
C[C@H](NC(=O)OCC1c2ccccc2-c2ccccc21)C(=O)N1[C@H](C)C(=O)OC[C@@H]1c1ccccc1	87 to 88 °C
CN1C[C@H]2c3ccccc3[C@H](c3ccccc3)CN2C(=O)C1=O (relative stereo)	193 to 194 °C
COc1cc(OC(=O)c2cccnc2)c2c(=O)c(OC)c(-c3ccc(OC(=O)c4cccnc4)c(OC)c3)oc2c1	212 to 214 °C
CC(C)(C)c1noc(-c2cccc(S(C)(=O)=O)n2)n1	165 to 167 °C
CC1(C)CC(=O)c2c(SC(C)(C)C)sc(-c3cc[nH]n3)c2C1	220 to 222 °C
CCc1nnc(-c2ccc(OC)cc2)n1-c1ccccc1C	118 °C
Cc1cc(C(C)(C)C)c(O)c(C)c1COC(=O)c1ccc(C(=O)OCc2c(C)cc(C(C)(C)C)c(O)c2C)cc1	227 to 230 °C
CSc1ccc(CN(C)CCCCc2ccc(NC(=O)c3cccc4c(=O)c5ccccc5[nH]c34)cc2)cc1	135 °C
Cc1ccc2c(c1)c(=O)[nH]c1c2c2ccccc2n1C	> 310 °C
Oc1ccc(C(NC(c2ccccc2)c2ccccc2)P(O)O)c(O)c1 (stereo unspecified)	250 °C
CCOC(=O)CSc1nc(Cl)c(C)c(Cl)n1	66 to 70 °C
CCOC(=O)c1cc2cc[nH]c2cc1N	> 250 °C
